According to ChEMBL document CHEMBL1201862, “PubChem BioAssay data set” (2004):
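Protocol summary: plate cells (96-well), add compound at 5 concentrations, incubate 48 h, interpolate endpoints linearly. At the GI50, growth is halved.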 Activity calls are given as the source filed them. No stated cut-off is given here; in the data, active = GI50 up to about 1.1 µM and inactive = higher.

How the values were obtained:
Assay in all cases: NCI tumour cell line growth inhibition, 48 h
IGROV-1 = system: IGROV-1
OVCAR-8 = system: OVCAR-8
CCRF-CEM = system: CCRF-CEM
SN12C = system: SN12C
Hs-578T = system: Hs-578T
HCT-116 = system: HCT-116
Malme-3M = system: Malme-3M
SK-OV-3 = system: SK-OV-3
T47D = system: T47D
OVCAR-4 = system: OVCAR-4
SK-MEL-2 = system: SK-MEL-2
SF-295 = system: SF-295
SR = system: SR
K562 = system: K562
SK-MEL-28 = system: SK-MEL-28
NCI/ADR-RES = system: NCI/ADR-RES
MCF7 = system: MCF7
MDA-MB-231 = system: MDA-MB-231
HCC 2998 = system: HCC 2998
EKVX = system: EKVX
HOP-62 = system: HOP-62
OVCAR-3 = system: OVCAR-3
PC-3 = system: PC-3
HOP-92 = system: HOP-92
RPMI-8226 = system: RPMI-8226
TK-10 = system: TK-10
RXF 393 = system: RXF 393
LOX IMVI = system: LOX IMVI
A549 = system: A549
HL-60 = system: HL-60
SF-539 = system: SF-539
NCI-H460 = system: NCI-H460
UO-31 = system: UO-31
DU-145 = system: DU-145
ACHN = system: ACHN
SK-MEL-5 = system: SK-MEL-5
SNB-19 = system: SNB-19
UACC-257 = system: UACC-257
HCT-15 = system: HCT-15
BT-549 = system: BT-549
SW-620 = system: SW-620
MOLT-4 = system: MOLT-4
CAKI-1 = system: CAKI-1
786-0 = system: 786-0
UACC-62 = system: UACC-62
SF-268 = system: SF-268
MDA-MB-435 = system: MDA-MB-435
M14 = system: M14
SNB-75 = system: SNB-75
MDA-N = system: MDA-N
OVCAR-5 = system: OVCAR-5
HT-29 = system: HT-29
COLO 205 = system: COLO 205
NCI-H23 = system: NCI-H23
NCI-H226 = system: NCI-H226
NCI-H522 = system: NCI-H522
A498 = system: A498
U-251 = system: U-251

Measured: GI50

C/C(=N/NC(=S)N1CC2CCC(CC2)C1)c1cnccn1
< 10 nM: HCT-15
active: IGROV-1 < 10 nM | OVCAR-8 < 10 nM | CCRF-CEM < 10 nM | SN12C < 17.8 nM | HCT-116 < 10 nM | Malme-3M < 10 nM | SK-OV-3 < 10 nM | T47D < 46.1 nM | OVCAR-4 26.4 nM | SK-MEL-2 278 nM | SF-295 55.1 nM | SR < 10 nM | K562 < 10 nM | NCI/ADR-RES < 10 nM | MCF7 < 10 nM | MDA-MB-231 < 10 nM | HCC 2998 218 nM | EKVX 10.1 nM | HOP-62 < 10 nM | OVCAR-3 < 10 nM | PC-3 < 10 nM | HOP-92 619 nM | RPMI-8226 < 10 nM | TK-10 670 nM | RXF 393 541 nM | LOX IMVI < 10 nM | A549 < 10 nM | HL-60 < 10 nM | SF-539 109 nM | NCI-H460 < 10.9 nM | UO-31 < 16.8 nM | DU-145 376 nM | ACHN < 12 nM | SK-MEL-5 < 17.5 nM | SNB-19 406 nM | UACC-257 < 10 nM | BT-549 993 nM | SW-620 < 10 nM | MOLT-4 < 10 nM | CAKI-1 < 10 nM | 786-0 < 10 nM | UACC-62 < 23 nM | SF-268 < 10 nM | MDA-MB-435 243 nM | M14 < 10.4 nM | SNB-75 828 nM | MDA-N 370 nM | OVCAR-5 255 nM | HT-29 < 10 nM | COLO 205 < 10 nM | NCI-H23 < 10 nM | NCI-H226 < 10 nM | NCI-H522 117 nM | U-251 < 10 nM
inactive: Hs-578T 2420 nM | SK-MEL-28 1640 nM | A498 1730 nM
